Where “and” joins values, the source holds several entries; their conditions need not be identical. Equal values may be shown once. Read-outs that look alike come from different tables or passages of the source.
Experiments:
[1] = system: L. monocytogenes (ATCC 19114, 19116 and 4594); test: Low temperature disinfectant efficacy, log reduction; type: cell-based; details: 4° C.; 1 minute contact exposure; FIG. 32
Procedure: Micro efficacy of PFA according to the present invention was evaluated under low temperature, low oxygen conditions employing the formulation of Table 41.
The log reduction of L. monocytogenes (ATCC 19114, 19116 and 4594) were evaluated at low temperature (4° C.) comparing peroxvacetic acid to the peroxyformic acid generated according to the formulation shown in Table 41. The results are shown in FIG. 32 comparing disinfectant efficacy after a 1 minute contact exposure to the disinfectants.
As a result, the performic acid generated has a great fit for application in brewery plants. The exceptional antimicrobial efficacy of performic acid at low temperature meets the requirement of cold temperature environment of brewery operations, while common biocides including peroxycarboxylic acids such as peracetic acids will suffer the efficacy lose under low temperatures. In addition, formic acid that always coexists with performic acid is a very efficient acidulant, which will help prevent/dissolve beer stone, thus eliminate the additional acid wash. As a further benefit the performic acid composition has very high performic acid to H2O2 ratio, which practically eliminates the O2 that could potentially introduced to the liquid being processed (i.e. beer) and interfere with the organoleptic effects and negative taste effects.

[2] = system: Nalidixic acid resistant E. coli O157:H7; test: Reduction of E. coli on raw beef brisket, dip treatment; type: cell-based; details: for CFU/cm2 / CFU/ml / Log CFU/cm2: replicates
Text: Nalidixic acid resistant E. coli O157:H7 was used to evaluate the efficacy in treatment with performic acid composition on raw beef brisket according to the conditions shown in Table 32.

Staphylococcus = test: Bactericidal activity of PFA versus POAA; type: cell-based; details: S. aureus ATCC 6538, 5 minutes, dirty conditions, 20° C.
Text: (§1) Staphylococcus, Enterococcus and Pseudomonas pathogens were used to evaluate the micro efficacy of PFA in comparison to POAA.

Pseudomonas = test: Bactericidal activity of PFA versus POAA; type: cell-based; details: P. aeruginosa ATCC 15442, 5 minutes, dirty conditions, 20° C.
Text: as §1

Enterococcus = test: Bactericidal activity of PFA versus POAA; type: cell-based; details: E. hirae ATCC 10541, 5 minutes, dirty conditions, 20° C.
Text: as §1

[3] = system: acid producing bacteria (APBs); test: Biocidal performance on treated produced water, bug bottles serial dilution; type: cell-based; details: PFA treatment of produced water
Procedure: Treatment of produced water with performic acid was evaluated using performic acid compositions containing a corrosion inhibitor. As shown in FIG. 28 (grey scale) the lighter color […] in the water, whereas the darker shading indicates no growth. Untreated has E5 bacteria/mL; 0.5 ppm PFA treated has E3 bacteria/mL. The bacterial bug bottles are specific in supporting growth of acid producing bacteria (APBs). Growth of APB is indicated by a color change from dark to light color (pink to yellow). 1 mL of initial inoculum was diluted 10 times in subsequent bottles. Therefore each bottle indicates a El bacteria/mL. Based on the results observed by growth/no growth of bacteria it can be concluded that PFA treatment results in at least a reduction of 2 log (equivalent of E2 bacteria/mL) bacteria.

[4] = system: microbes in water sample (80% tap water 20% produced water); test: Kill performance (log reduction) in water sample, 5 min exposure; type: cell-based; details: exposure time 5 min
Text: Synergy examples range from pH 0 to 12 at varied concentrations. Synergistic activity is defined as a technical effect that exceeds the addition of the cumulative performance of the materials in formulation.
As referred to in Table 8 the following commercially-available test substances were employed: POAA (15% POAA, 10% H2O2), PAA 1 (21% peracetic, 3.5% H2O2), POOA (0.5% POOA, 6.8% H2O2).

[5] = Performance of corrosion inhibitor in sea water and produced water systems (% protection); details: 200 ppm active performic acid, 50 ppm corrosion inhibitor (PFA: no inhibitor)
Procedure: 200 ppm active of performic acid was added. 50 ppm of corrosion inhibitor was added for corrosion protection. % protection was plotted by comparison of the corrosion rate in the presence of corrosion inhibitor to the corrosion rate with no corrosion inhibitor addition (PFA or PFA-PW) as shown in Table 30.

Various pathogens = type: cell-based; details: for Result (Passing Requirement 5 log reduction): EN 13727
[6] = system: microorganisms in produced water; test: Microbial efficacy by ATP concentration (AccuCount) in produced water; type: cell-based; details: PFA 5 ppm active, compounds 50 ppm product
Procedure: Microbial efficacy of PFA alone (5 ppm active) or PFA (5 ppm active) in conjunction with the compounds (50 ppm product) listed in the Table 20 below and in FIG. 13 were tested by measuring the ATP concentration in the untreated and treated produced water samples (using AccuCount technology). Reductions in bacterial numbers were tabulated as % kill for each experiment. The results are represented in FIG. 13 and in Table 20.

[7] = 220 ppm POAA, pH 8.86, 10 minutes, raw beef brisket
[8] = 180 ppm PFA, pH 8.76, 10 minutes, raw beef brisket

SMILES: CC(=O)OO [POAA, peroxyacetic acid, reference compound]
- disinfectant efficacy at the lower temperature (in words) [1]: significantly decreases
- Average Log CFU/cm2 [2, 7]: 2.98 Log CFU/cm2
- Log reduction [2, 7]: 1.06
- CFU/cm2 [2, 7]: 1.20E+03 CFU/cm2 and 9.00E+02 CFU/cm2 and 8.00E+02 CFU/cm2
- CFU/ml [2, 7]: 6.00E+02 CFU/ml and 4.50E+02 CFU/ml and 4.00E+02 CFU/ml
- Log CFU/cm2 [2, 7]: 3.08 Log CFU/cm2 and 2.95 Log CFU/cm2 and 2.90 Log CFU/cm2
- Log reduction ([2]; 220 ppm POAA, pH 8.86, dip for 10 minutes, ambient): 1.06
- Average CFU/mL (Staphylococcus; 24.8 ppm POAA × 1.25, pH 6.73): 1.77E+05 CFU/mL
- Log10 Growth (Staphylococcus; 24.8 ppm POAA × 1.25, pH 6.73): 5.25
- Average CFU/mL (Staphylococcus; 37.6 ppm POAA × 1.25, pH 6.90): <140 CFU/mL
- Log10 Growth (Staphylococcus; 37.6 ppm POAA × 1.25, pH 6.90): <2.15
- Average CFU/mL (Staphylococcus; 62.4 ppm POAA × 1.25, pH 6.98): <140 CFU/mL
- Log10 Growth (Staphylococcus; 62.4 ppm POAA × 1.25, pH 6.98): <2.15
- Average CFU/mL (Pseudomonas; 24.8 ppm POAA × 1.25, pH 6.73): <140 CFU/mL
- Log10 Growth (Pseudomonas; 24.8 ppm POAA × 1.25, pH 6.73): <2.15
- Average CFU/mL (Pseudomonas; 37.6 ppm POAA × 1.25, pH 6.90): <140 CFU/mL
- Log10 Growth (Pseudomonas; 37.6 ppm POAA × 1.25, pH 6.90): <2.15
- Average CFU/mL (Pseudomonas; 62.4 ppm POAA × 1.25, pH 6.98): <140 CFU/mL
- Log10 Growth (Pseudomonas; 62.4 ppm POAA × 1.25, pH 6.98): <2.15
- Average CFU/mL (Enterococcus; 24.8 ppm POAA × 1.25, pH 6.73): >3.30E+05 CFU/mL
- Log10 Growth (Enterococcus; 24.8 ppm POAA × 1.25, pH 6.73): >5.52
- Average CFU/mL (Enterococcus; 37.6 ppm POAA × 1.25, pH 6.90): 9.25E+03 CFU/mL
- Log10 Growth (Enterococcus; 37.6 ppm POAA × 1.25, pH 6.90): 3.97
- Average CFU/mL (Enterococcus; 62.4 ppm POAA × 1.25, pH 6.98): <140 CFU/mL
- Log10 Growth (Enterococcus; 62.4 ppm POAA × 1.25, pH 6.98): <2.15

SMILES: O=COO [PFA, peroxyformic acid]
- disinfectant efficacy at the lower temperature (in words) [1]: does not decrease
- reduction of bacteria [3]: ≥ 2 log
- Log reduction ([4]; 2 ppm PFA): 3.01
- Log reduction ([4]; 8.5 ppm PFA): 5.69
- Log reduction ([4]; 10 ppm PFA): 5.28
- % Protection, 3 hrs after dosing ([5]; produced water (PW)): −237.2%
- % Protection, 8 hrs after dosing ([5]; produced water (PW)): −228.1%
- % Protection, Last hour of testing ([5]; produced water (PW)): −261.2%
- % Protection, 3 hrs after dosing ([5]; sea water): −10666.2%
- % Protection, 8 hrs after dosing ([5]; sea water): −13447.5%
- % Protection, Last hour of testing ([5]; sea water): −14481.9%
- Average Log CFU/cm2 [2, 8]: 3.22 Log CFU/cm2
- Log reduction [2, 8]: 0.83
- CFU/cm2 [2, 8]: 1.84E+03 CFU/cm2 and 1.42E+03 CFU/cm2 and 1.72E+03 CFU/cm2
- CFU/ml [2, 8]: 9.20E+02 CFU/ml and 7.10E+02 CFU/ml and 8.60E+02 CFU/ml
- Log CFU/cm2 [2, 8]: 3.26 Log CFU/cm2 and 3.15 Log CFU/cm2 and 3.24 Log CFU/cm2
- Result (Passing Requirement 4 log reduction) (Various pathogens; EN 13624, Aspergillus brasiliensis ATCC 1604, 450 ppm PFA pH 6-7): PASS
- Result (Passing Requirement 4 log reduction) (Various pathogens; EN 13624, Canidia albicans ATCC 10231, 450 ppm PFA pH 6-7): PASS
- Result (Passing Requirement 3 log reduction) (Various pathogens; EN 13704, Bacillus subtilis ATCC 6633, 450 ppm PFA pH 6-7): PASS
- Result (Passing Requirement 5 log reduction) (Various pathogens; Enterococcus hirae ATCC 10541, 450 ppm PFA pH 6-7): PASS
- Result (Passing Requirement 5 log reduction) (Various pathogens; P. aeruginosa ATCC 15442, 450 ppm PFA pH 6-7): PASS
- Result (Passing Requirement 5 log reduction) (Various pathogens; Staph. Aureus ATCC 6538, 450 ppm PFA pH 6-7): PASS
- Result (Passing Requirement 4 log reduction) (Various pathogens; pH 6): PASS
- Average CFU/mL (Staphylococcus; 20 ppm PFA × 1.25, pH 6.61): <140 CFU/mL
- Log10 Growth (Staphylococcus; 20 ppm PFA × 1.25, pH 6.61): <2.15
- Average CFU/mL (Staphylococcus; 30 ppm PFA × 1.25, pH 6.74): <140 CFU/mL
- Log10 Growth (Staphylococcus; 30 ppm PFA × 1.25, pH 6.74): <2.15
- Average CFU/mL (Staphylococcus; 50 ppm PFA × 1.25, pH 6.60): <140 CFU/mL
- Log10 Growth (Staphylococcus; 50 ppm PFA × 1.25, pH 6.60): <2.15
- Average CFU/mL (Pseudomonas; 20 ppm PFA × 1.25, pH 6.61): <140 CFU/mL
- Log10 Growth (Pseudomonas; 20 ppm PFA × 1.25, pH 6.61): <2.15
- Average CFU/mL (Pseudomonas; 30 ppm PFA × 1.25, pH 6.74): <140 CFU/mL
- Log10 Growth (Pseudomonas; 30 ppm PFA × 1.25, pH 6.74): <2.15
- Average CFU/mL (Pseudomonas; 50 ppm PFA × 1.25, pH 6.60): <140 CFU/mL
- Log10 Growth (Pseudomonas; 50 ppm PFA × 1.25, pH 6.60): <2.15
- Average CFU/mL (Enterococcus; 20 ppm PFA × 1.25, pH 6.61): 6.30E+03 CFU/mL
- Log10 Growth (Enterococcus; 20 ppm PFA × 1.25, pH 6.61): 3.80
- Average CFU/mL (Enterococcus; 30 ppm PFA × 1.25, pH 6.74): 2.15E+02 CFU/mL
- Log10 Growth (Enterococcus; 30 ppm PFA × 1.25, pH 6.74): 2.33
- Average CFU/mL (Enterococcus; 50 ppm PFA × 1.25, pH 6.60): <140 CFU/mL
- Log10 Growth (Enterococcus; 50 ppm PFA × 1.25, pH 6.60): <2.15
- % Kill [6]: 87.9%
